The test system of one data set is CWR22R. The experiment in a line: cells. It counts as functional, cell-based. The note with it: Homo sapiens, 22Rv1, […].
A short description of data set [1]: in vivo. The note with it: male, C57BL/6, mouse, brain, iv, 1 mg/kg.
Description: Ratio of drug concentration in male C57BL/6 mouse brain to plasma at 1 mg/kg, iv measured after 1 hr
A short description of data set [2]: in vivo. The note with it: male, C57BL/6, mouse, iv, 1 mg/kg.
Description: Clearance in male C57BL/6 mouse at 1 mg/kg, iv
Data set [3] can be described thus: in vivo. The note with it: male, C57BL/6, mouse, iv, 1 mg/kg. The source holds these as a separate data set.
Description: C0 in male C57BL/6 mouse at 1 mg/kg, iv
Data set [4] is described as follows: in vivo. The note with it: male, C57BL/6, mouse, iv, 1 mg/kg. This is another data set of the same source.
Description: Half life in male C57BL/6 mouse at 1 mg/kg, iv
Data set [5] can be described thus: in vivo. The note with it: male, C57BL/6, mouse, iv, 1 mg/kg. The source holds these as a separate data set.
The nature of data set [6]: in vivo. The note with it: male, C57BL/6, mouse, iv, 1 mg/kg. The source holds these as a separate data set.
Description: Volume of distribution at steady state in male C57BL/6 mouse at 1 mg/kg, iv
Another data set has as its system LNCaP. Briefly: cells. It counts as functional, cell-based. The note with it: Homo sapiens.
Data set [7] in a line: in vitro. The note with it: human, microsomes.
The test system of another data set is LNCaP C4-2. The experiment in a line: cells. The note with it: Homo sapiens. It is filed as functional, cell-based.
The nature of data set [8]: in vitro. The note with it: mouse, microsomes.
Description: Metabolic stability in mouse liver microsomes assessed as half life
A further data set in a line: cells. It counts as functional, cell-based. The note with it: Homo sapiens, Enzalutamide-resistant C4-2B.
The nature of data set [9]: in vitro. The note with it: human, microsomes. This is another data set of the same source.
The nature of data set [10]: in vitro. The note with it: mouse, microsomes. This is another data set of the same source.

Description for CWR22R: Antiproliferative activity against human 22Rv1 cells assessed as inhibition of cell growth incubated for 7 days by celltiter-glo assay
Description for LNCaP C4-2: Antiproliferative activity against human C4-2 cells assessed as inhibition of cell growth incubated for 7 days by celltiter-glo assay

The term IC50 denotes the point on the concentration scale where inhibition reaches its midpoint. High values mean weaker potency, low ones greater potency. The molecule `COc1c(C#N)ccc(NC(=O)[C@@](C)(O)CN2CC3CCC(C2)N3c2ccc(C#N)cc2)c1F` displayed an IC50 with CWR22R of 5.3 µM.

Take `N#Cc1ccc(O[C@H]2CC[C@H](NC(=O)c3ccc(N4CCC(CN5CCN(c6cc7c(cc6F)C(=O)N(C6CCC(=O)NC6=O)C7=O)CC5)CC4)nn3)CC2)cc1Cl` (some centres not stated) [BAVDEGALUTAMIDE]: in the data set on CWR22R, the IC50 is greater than 100 µM.

The clearance is the rate of elimination divided by the concentration. The term half-life denotes the time in which the quantity being followed falls by half. A higher half-life goes with slow decline. A word on the AUC(0-t): it is exposure summed from dosing to a finite time, without extrapolation to infinity. What is called Vd is a proportionality between amount in the body and measured concentration, not a real space. Turning to `C[C@](O)(CN1CC2CCC(C1)N2c1ccc(C#N)cc1)C(=O)Nc1cnc(C#N)c(Cl)c1`, the Kp at 1 h in “in vivo [1]” turned out to be 0.33. Besides, the clearance in “in vivo [2]” is 16.2 mL/min/kg. In addition, in the data set on CWR22R, half-maximal inhibition (IC50) was put at 1.68 µM. In “in vivo [3]”, this molecule registered a C0 of 1140 ng/mL. For the same molecule, the half-life in “in vivo [4]” is 96.6 min. Besides, in the data set “in vivo [5]”, the AUC(0-t) was 1030 ng·h/mL. Also, in the data set “in vivo [6]”, the Vd came out at 1.42 L/kg.

Consider `Cc1cc(C#N)ccc1N1C2CCC1CN(C[C@](C)(O)C(=O)Nc1ccc(C#N)c(C(F)(F)F)c1)C2`, for which, in the data set with CWR22R, half-maximal inhibition (IC50) was put at 3.08 µM.

`C[C@](O)(CN1CC2CCC(C1)N2c1ccc(C#N)cn1)C(=O)Nc1ccc(C#N)c(C(F)(F)F)c1` displayed an IC50 with CWR22R of 2.28 µM. This IC50 and that of the molecule before are within 1.5-fold of each other.

Take `C[C@](O)(CN1CC2CCC(C1)N2c1cnc(C#N)nc1)C(=O)Nc1ccc(C#N)c(C(F)(F)F)c1`: 5.24 µM corresponded to half-maximal inhibition in the data set on CWR22R (IC50).

For the molecule `CC(O)c1cc(C(=O)N[C@@H](C)Cn2ccc(-c3ccc(C#N)c(Cl)c3)n2)n[nH]1` (some centres not stated) [DAROLUTAMIDE], the IC50 in the data set with CWR22R worked out at 31.2 µM.

In turn, `COc1cc(NC(=O)[C@@](C)(O)CN2CC3CCC(C2)N3c2ccc(C#N)cc2)ccc1C#N` returned an IC50 in the data set on CWR22R of 2.23 µM.

Usually microsomal CLint stands for a measure of how fast metabolising enzymes remove a compound, apart from limits set by blood flow. Molecule `C[C@](O)(CN1CC2CCC(C1)N2c1ccc(C#N)cc1)C(=O)Nc1ccc(C#N)c(Cl)c1` yielded a Kp at 1 h in the data set “in vivo [1]” of 0.55. Also, the half-maximal inhibitory concentration (IC50) in the data set with LNCaP is 1.57 µM; in the data set with LNCaP C4-2, 1.19 µM; in “cells” it was 5.23 µM. This molecule had a clearance in the data set “in vivo [2]” of 7.09 mL/min/kg. In addition, the half-life in “in vitro [7]” is 9.95 min; in the data set “in vitro [8]” it was 12.2 min; in “in vivo [4]”, 244 min. Moreover, the C0 in the data set “in vivo [3]” turned out to be 1420 ng/mL. Also, the AUC(0-t) in “in vivo [5]” worked out at 2330 ng·h/mL. The intrinsic clearance (microsomal CLint) in “in vitro [9]” is 139 µL/min/mg; in “in vitro [10]”, 114 µL/min/mg. This molecule also yielded a Vd in “in vivo [6]” of 1.87 L/kg.

As for `C[C@](O)(CN1CC2CCC(C1)N2Cc1ccc(C#N)cc1)C(=O)Nc1ccc(C#N)c(C(F)(F)F)c1`, the midpoint of inhibition with CWR22R, the IC50, lay at 20.5 µM. This counts as double-digit micromolar.

In the case of `C[C@](O)(CN1C[C@@H]2C[C@H]1CN2c1ccc(C#N)cc1)C(=O)Nc1ccc(C#N)c(C(F)(F)F)c1`, inhibition in the data set with CWR22R was half-maximal at 10 µM (IC50).

In the data set on CWR22R, `C[C@](O)(CN1CC2CCC(C1)N2c1ccc(C#N)cc1)C(=O)Nc1ccc([N+](=O)[O-])c(C(F)(F)F)c1` displayed an IC50 of 1.65 µM.

For `CNC(=O)c1ccc(N2C(=S)N(c3cnc(C#N)c(C(F)(F)F)c3)C(=O)C23CCC3)cc1F` [APALUTAMIDE], the IC50 with CWR22R was greater than 100 µM.

For `C[C@](O)(CN1CC2CCC(C1)N2c1cnc(C#N)nc1)C(=O)Nc1cnc(C#N)c(C(F)(F)F)c1`, in the data set with CWR22R, the concentration for half-maximal inhibition (IC50) came to 15.8 µM.

Regarding `C[C@](O)(Cn1ccc2cc(F)ccc21)C(=O)Nc1ccc(C#N)c(C(F)(F)F)c1`, in the data set on CWR22R, the midpoint of inhibition, the IC50, lay at 3.53 µM.

Consider `COc1cc(C#N)ccc1N1C2CCC1CN(C[C@](C)(O)C(=O)Nc1ccc(C#N)c(C(F)(F)F)c1)C2`, for which, in the data set with CWR22R, the IC50 was 4.12 µM. This IC50 and that of the molecule before are within 1.5-fold of each other.

As for `C[C@](O)(CN1CC2CCC(C1)N2c1ccc(F)cc1)C(=O)Nc1ccc(C#N)c(C(F)(F)F)c1`, the midpoint of inhibition in the data set with CWR22R, the IC50, lay at 12.9 µM.

In the data set on CWR22R, `C[C@]12CC[C@H](O)CC1=CC[C@@H]1[C@@H]2CC[C@]2(C)C(n3cnc4ccccc43)=CC[C@@H]12` [GALETERONE] returned a 50% inhibitory concentration (IC50) of 12 µM.

`C[C@](O)(CN1CC2CCC(C1)N2c1ncc(C#N)cn1)C(=O)Nc1ccc(C#N)c(C(F)(F)F)c1` registered an IC50 with CWR22R of 4.05 µM.

The values above are taken from ChEMBL document CHEMBL6109158, “Discovery of Novel Bifunctional Agents as Potent Androgen Receptor Antagonists and Degraders for the Treatment of Enzalutamide-Resistant Prostate Cancer” (J Med Chem, 2025).
